Assay results taken from ChEMBL document CHEMBL5696442, “Discovery of type II inhibitors of TGFβ-activated kinase 1 (TAK1) and mitogen-activated protein kinase kinase kinase kinase 2 (MAP4K2)” (J Med Chem, 2015).
The source made the active and inactive calls. The rule behind the calls is not given here.

What was measured:
[1] = molecular target: TRAF2 and NCK-interacting protein kinase (Homo sapiens) (UniProt Q9UKE5); assay: Inhibition of ZC2/TNIK Lys2 labeling site in human Huh-7 cells at 1 uM by KiNativ Profiling analysis relative to control; type: cell-based
Chain of TRAF2 and NCK-interacting protein kinase (Homo sapiens) (Q9UKE5 whole entry, looked up): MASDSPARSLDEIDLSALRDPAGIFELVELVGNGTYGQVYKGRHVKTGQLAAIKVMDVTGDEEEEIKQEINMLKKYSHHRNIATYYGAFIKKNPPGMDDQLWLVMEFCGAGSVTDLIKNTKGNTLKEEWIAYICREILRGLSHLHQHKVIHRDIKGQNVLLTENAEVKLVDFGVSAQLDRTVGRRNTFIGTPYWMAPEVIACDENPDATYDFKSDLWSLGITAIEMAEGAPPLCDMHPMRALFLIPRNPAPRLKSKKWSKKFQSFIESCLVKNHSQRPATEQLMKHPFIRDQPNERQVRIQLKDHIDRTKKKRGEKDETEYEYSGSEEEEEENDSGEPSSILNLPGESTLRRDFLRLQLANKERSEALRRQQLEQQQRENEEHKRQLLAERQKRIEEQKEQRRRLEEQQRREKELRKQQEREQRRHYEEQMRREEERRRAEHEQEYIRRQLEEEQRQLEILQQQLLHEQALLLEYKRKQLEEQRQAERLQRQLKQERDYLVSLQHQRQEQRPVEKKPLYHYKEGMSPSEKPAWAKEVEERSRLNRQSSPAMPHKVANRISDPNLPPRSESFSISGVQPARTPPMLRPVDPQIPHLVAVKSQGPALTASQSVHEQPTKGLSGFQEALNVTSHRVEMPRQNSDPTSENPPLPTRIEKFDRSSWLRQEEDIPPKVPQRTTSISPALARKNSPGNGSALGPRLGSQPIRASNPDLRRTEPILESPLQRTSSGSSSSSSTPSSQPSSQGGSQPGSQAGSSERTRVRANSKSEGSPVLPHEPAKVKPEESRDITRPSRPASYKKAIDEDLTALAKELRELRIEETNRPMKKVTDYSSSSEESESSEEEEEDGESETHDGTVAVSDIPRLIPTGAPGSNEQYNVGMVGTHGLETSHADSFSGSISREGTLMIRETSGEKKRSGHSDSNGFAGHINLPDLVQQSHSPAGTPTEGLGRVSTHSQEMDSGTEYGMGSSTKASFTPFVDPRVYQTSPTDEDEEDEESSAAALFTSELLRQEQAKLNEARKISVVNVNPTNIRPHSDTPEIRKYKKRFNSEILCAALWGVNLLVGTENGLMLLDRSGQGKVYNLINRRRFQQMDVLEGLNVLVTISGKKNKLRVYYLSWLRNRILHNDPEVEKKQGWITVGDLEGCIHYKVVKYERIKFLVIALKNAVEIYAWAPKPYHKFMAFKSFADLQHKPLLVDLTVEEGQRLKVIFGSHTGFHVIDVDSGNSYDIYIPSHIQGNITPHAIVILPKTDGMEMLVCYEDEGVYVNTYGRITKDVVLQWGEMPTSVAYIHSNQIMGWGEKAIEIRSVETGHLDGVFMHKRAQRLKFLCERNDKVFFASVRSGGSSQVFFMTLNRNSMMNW

[2] = molecular target: Peripheral plasma membrane protein CASK (Homo sapiens) (UniProt O14936); assay: Inhibition of CASK Lys1 labeling site in human Huh-7 cell lysate at 1 uM by KiNativ Profiling analysis relative to control
[3] = molecular target: Calcium/calmodulin-dependent protein kinase type II subunit beta (Homo sapiens) (UniProt Q13554); assay: Inhibition of CaMK2b Lys2 labeling site in human Huh-7 cells at 1 uM by KiNativ Profiling analysis relative to control; type: cell-based
[4] = molecular target: Serine/threonine-protein kinase 24 (Homo sapiens) (UniProt Q9Y6E0); assay: Inhibition of MST3 Lys2 labeling site harbouring DIKAANVLLSEHGEVK in human Huh-7 cell lysate at 1 uM by KiNativ Profiling analysis relative to control; type: subcellular
Chain of Serine/threonine-protein kinase 24 (Homo sapiens) (Q9Y6E0 whole entry, looked up): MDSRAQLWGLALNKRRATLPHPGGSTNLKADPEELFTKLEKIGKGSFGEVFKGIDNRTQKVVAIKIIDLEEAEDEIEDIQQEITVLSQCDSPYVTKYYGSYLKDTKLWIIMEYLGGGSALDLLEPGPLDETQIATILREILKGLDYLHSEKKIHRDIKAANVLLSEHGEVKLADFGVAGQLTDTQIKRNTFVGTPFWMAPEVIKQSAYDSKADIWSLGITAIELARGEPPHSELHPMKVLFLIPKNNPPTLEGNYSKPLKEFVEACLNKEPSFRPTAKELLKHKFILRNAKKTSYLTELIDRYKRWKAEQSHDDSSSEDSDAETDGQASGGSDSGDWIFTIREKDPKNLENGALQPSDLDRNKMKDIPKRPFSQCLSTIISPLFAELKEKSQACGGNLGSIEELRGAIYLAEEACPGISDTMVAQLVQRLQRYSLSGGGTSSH

[5] = molecular target: Serine/threonine-protein kinase WNK3 (Homo sapiens) (UniProt Q9BYP7); assay: Inhibition of Wnk3 Lys2 labeling site in human Huh-7 cells at 1 uM by KiNativ Profiling analysis relative to control; type: cell-based
[6] = Inhibition of Wnk1/2/3 K2 labeling site in human Huh-7 cells at 1 uM by KiNativ Profiling analysis relative to control; conditions: condition cancer
[7] = molecular target: T1, Serine/threonine-protein kinase LATS2 (Homo sapiens) (UniProt Q9NRM7); assay: Inhibition of LATS2 Lys2 labeling site in human A-375 cells at 5 uM by KiNativ Profiling analysis relative to control; type: cell-based
T1 sequence (whole entry): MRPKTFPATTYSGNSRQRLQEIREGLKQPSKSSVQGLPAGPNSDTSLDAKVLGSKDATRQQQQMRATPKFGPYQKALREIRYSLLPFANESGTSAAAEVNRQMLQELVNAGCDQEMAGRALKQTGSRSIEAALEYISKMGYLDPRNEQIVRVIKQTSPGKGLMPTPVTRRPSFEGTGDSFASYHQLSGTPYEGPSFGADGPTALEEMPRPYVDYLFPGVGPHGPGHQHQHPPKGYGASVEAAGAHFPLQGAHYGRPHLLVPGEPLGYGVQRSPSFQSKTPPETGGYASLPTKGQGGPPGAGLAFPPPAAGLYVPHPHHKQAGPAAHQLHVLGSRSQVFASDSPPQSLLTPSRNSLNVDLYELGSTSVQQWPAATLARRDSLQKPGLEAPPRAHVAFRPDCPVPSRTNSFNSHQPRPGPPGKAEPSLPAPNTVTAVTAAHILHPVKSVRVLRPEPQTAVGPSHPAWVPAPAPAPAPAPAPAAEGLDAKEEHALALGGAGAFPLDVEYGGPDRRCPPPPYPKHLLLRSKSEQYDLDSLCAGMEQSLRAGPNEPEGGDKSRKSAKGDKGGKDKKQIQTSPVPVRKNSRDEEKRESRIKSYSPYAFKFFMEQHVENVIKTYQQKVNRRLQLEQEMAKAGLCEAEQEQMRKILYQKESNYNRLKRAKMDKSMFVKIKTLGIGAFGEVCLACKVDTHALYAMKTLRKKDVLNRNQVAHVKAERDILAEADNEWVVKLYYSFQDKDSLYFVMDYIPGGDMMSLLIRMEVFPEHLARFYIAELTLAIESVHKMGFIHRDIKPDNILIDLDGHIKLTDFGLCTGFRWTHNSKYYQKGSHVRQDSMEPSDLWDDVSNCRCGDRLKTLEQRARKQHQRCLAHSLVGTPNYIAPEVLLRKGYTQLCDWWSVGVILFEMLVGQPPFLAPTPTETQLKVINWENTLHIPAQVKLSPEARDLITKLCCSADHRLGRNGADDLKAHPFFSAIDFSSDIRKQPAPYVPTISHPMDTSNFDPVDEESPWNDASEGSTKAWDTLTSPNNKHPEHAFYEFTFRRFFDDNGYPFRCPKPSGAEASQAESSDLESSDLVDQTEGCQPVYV

[8] = molecular target: Serine/threonine-protein kinase DCLK2 (Homo sapiens) (UniProt Q8N568); assay: Inhibition of DCAMKL2 (unknown origin) at 10 uM by Ambit Kinomescan binding assay
[9] = molecular target: Tyrosine-protein kinase ABL (Homo sapiens) (UniProt P00519+P42684); assay: Inhibition of ABL1/2 K1 labeling site in human Huh-7 cells at 10 uM by KiNativ Profiling analysis relative to control; type: cell-based
Chain of Tyrosine-protein kinase ABL (Homo sapiens) (P00519 whole entry, looked up): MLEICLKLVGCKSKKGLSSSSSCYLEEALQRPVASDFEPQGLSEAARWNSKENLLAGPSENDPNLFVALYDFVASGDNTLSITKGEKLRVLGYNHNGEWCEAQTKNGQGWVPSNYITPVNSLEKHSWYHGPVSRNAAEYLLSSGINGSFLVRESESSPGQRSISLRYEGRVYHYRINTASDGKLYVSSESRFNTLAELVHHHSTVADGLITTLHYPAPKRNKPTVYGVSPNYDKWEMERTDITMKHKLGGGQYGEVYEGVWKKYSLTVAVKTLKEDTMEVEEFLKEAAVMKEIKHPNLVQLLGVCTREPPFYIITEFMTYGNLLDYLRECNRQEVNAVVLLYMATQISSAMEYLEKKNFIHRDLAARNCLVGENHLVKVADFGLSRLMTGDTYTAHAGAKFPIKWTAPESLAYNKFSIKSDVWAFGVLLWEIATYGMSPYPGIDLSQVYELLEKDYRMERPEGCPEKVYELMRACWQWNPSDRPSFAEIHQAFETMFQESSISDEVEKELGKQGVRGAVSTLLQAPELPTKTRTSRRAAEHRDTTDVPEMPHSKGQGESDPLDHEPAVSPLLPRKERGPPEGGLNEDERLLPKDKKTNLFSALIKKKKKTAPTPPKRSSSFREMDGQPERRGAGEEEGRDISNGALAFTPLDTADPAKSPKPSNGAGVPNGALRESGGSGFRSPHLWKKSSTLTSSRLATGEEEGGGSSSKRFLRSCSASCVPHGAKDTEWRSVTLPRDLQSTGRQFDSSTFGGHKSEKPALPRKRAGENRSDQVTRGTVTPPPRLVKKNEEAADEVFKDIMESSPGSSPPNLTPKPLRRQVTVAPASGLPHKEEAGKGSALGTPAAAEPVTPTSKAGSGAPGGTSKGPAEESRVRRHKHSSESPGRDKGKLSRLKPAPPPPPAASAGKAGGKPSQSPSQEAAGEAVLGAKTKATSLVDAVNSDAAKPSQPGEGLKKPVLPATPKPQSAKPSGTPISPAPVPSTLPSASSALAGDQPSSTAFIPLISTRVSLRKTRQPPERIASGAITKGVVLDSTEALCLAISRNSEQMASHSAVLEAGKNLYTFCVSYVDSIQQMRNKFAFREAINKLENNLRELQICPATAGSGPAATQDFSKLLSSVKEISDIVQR
Chain of Tyrosine-protein kinase ABL (Homo sapiens) (P42684 whole entry, looked up): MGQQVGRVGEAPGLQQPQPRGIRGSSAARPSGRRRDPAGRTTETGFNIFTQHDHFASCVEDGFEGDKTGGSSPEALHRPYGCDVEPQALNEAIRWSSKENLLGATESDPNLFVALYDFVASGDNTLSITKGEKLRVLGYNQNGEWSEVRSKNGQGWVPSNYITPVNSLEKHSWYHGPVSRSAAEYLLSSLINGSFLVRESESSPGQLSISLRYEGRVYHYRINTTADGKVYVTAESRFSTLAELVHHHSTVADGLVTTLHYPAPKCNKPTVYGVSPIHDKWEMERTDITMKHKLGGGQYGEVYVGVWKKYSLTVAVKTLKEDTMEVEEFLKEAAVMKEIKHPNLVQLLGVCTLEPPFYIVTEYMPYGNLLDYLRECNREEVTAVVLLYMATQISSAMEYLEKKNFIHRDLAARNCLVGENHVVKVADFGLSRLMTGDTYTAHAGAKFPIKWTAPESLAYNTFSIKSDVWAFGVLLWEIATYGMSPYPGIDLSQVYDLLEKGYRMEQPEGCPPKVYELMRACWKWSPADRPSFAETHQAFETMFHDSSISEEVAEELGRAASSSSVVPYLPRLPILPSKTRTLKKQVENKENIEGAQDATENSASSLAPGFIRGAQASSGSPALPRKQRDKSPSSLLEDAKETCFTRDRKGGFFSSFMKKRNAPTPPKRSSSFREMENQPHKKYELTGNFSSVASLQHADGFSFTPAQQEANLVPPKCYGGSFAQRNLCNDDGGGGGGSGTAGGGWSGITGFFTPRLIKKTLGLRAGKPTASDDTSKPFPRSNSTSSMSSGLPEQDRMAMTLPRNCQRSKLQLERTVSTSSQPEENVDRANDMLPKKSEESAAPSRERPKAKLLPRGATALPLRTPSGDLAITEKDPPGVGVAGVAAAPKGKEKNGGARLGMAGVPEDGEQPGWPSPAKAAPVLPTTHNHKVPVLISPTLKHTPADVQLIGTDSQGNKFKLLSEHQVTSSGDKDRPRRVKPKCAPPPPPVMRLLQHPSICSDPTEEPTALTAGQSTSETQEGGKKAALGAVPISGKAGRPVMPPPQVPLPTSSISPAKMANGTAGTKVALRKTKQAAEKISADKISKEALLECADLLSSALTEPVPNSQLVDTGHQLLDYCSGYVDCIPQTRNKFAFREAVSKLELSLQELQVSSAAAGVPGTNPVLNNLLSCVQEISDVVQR

[10] = molecular target: Non-receptor tyrosine-protein kinase TNK1 (Homo sapiens) (UniProt Q13470); assay: Inhibition of TNK1 (unknown origin) at 10 uM by Ambit Kinomescan binding assay relative to control; values are per cent of control
[11] = molecular target: Cyclin-dependent kinase-like 5 (Homo sapiens) (UniProt O76039); assay: Inhibition of CDKL5 (unknown origin) at 1 uM by Ambit Kinomescan binding assay relative to control; values are per cent of control
[12] = molecular target: Ephrin type-A receptor 4 (Homo sapiens) (UniProt P54764); assay: Inhibition of EPHA4 (unknown origin) at 1 uM by Ambit Kinomescan binding assay relative to control; values are per cent of control
[13] = molecular target: Myosin light chain kinase (Homo sapiens) (UniProt Q32MK0); assay: Inhibition of MLCK (unknown origin) at 1 uM by Ambit Kinomescan binding assay relative to control; values are per cent of control
[14] = system: Mast/stem cell growth factor receptor Kit (Homo sapiens), P10721 [V559D,T670I]; assay: Inhibition of KIT V559D/T670I mutant (unknown origin) at 1 uM by Ambit Kinomescan binding assay relative to control; values are per cent of control
Chain of Mast/stem cell growth factor receptor Kit (Homo sapiens), P10721 [V559D,T670I] (P10721 whole entry V559D/T670I): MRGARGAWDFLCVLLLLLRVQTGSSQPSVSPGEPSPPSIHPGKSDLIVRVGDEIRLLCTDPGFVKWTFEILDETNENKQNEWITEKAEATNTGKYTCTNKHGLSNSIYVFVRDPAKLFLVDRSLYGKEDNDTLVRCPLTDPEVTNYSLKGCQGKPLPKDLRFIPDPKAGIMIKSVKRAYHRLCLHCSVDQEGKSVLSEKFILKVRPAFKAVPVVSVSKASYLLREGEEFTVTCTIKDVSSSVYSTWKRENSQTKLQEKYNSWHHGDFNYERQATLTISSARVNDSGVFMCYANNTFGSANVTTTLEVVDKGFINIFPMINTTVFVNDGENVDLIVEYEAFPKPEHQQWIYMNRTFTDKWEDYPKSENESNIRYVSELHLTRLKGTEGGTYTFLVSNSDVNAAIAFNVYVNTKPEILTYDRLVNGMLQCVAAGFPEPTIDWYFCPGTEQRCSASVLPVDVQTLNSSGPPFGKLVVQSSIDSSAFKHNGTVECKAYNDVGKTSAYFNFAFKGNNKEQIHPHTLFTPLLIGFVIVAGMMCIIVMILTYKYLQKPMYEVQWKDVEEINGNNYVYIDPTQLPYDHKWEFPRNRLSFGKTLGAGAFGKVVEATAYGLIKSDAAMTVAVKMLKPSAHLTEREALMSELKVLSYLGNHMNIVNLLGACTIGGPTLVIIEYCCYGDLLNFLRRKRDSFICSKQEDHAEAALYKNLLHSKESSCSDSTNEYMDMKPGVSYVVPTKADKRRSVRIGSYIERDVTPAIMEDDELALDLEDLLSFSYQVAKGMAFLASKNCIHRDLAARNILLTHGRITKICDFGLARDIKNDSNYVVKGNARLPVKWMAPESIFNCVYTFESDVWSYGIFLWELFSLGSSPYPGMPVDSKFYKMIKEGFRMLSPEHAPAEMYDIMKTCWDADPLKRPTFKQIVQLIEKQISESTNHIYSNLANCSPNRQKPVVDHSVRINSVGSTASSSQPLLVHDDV

Compound: CNc1cc(Oc2cc(C(=O)Nc3cc(N4CCN(C)CC4)cc(C(F)(F)F)c3)ccc2C)ncn1
- inhibition [1]: 9.7%
- inhibition [2]: -8.9%
- inhibition [3]: 20.3%
- inhibition [4]: 5.5%
- inhibition [5]: 15.3%

Compound: CCN1CCN(Cc2ccc(NC(=O)c3ccc(C)c(Oc4ccnc5[nH]ccc45)c3)cc2C(F)(F)F)CC1
- inhibition at 1 µM [6]: -17.1%
- inhibition [7]: 5.5%
- inhibition [8]: inactive
- inhibition [9]: 96%
- residual activity [10]: 0.35%

Compound: CCN1CCN(Cc2ccc(NC(=O)c3ccc(C)c(/C=C/c4cnc5[nH]ccc5c4OC)c3)cc2C(F)(F)F)CC1
- residual activity [11]: 100%
- residual activity [12]: 3.7%
- residual activity [13]: 100%
- residual activity [14]: 4.9%
